The results in this text go back to patent US8242084B2, “Dimerized peptide” (Chugai Seiyaku Kabushiki Kaisha, priority 2003, dated 2012).

The subject of the experiment is EL4-A2402/K^b cells. In words: Induction of CTLs with peptide dimer: HLA-A24 transgenic mice immunised, splenocytes tested by 51Cr release assay. The format is in vivo, HLA-A24 transgenic mouse. The settings on record: for CTL-inducing activity (induction of peptide-specific CTLs): HLA-A24 transgenic mouse, s.c. injection in the base of the tail, FIG. 1. The protocol: The CTL-inducing activity of the peptide dimer prepared in Example 1 was evaluated using HLA-A24 transgenic mice (Int. J. Cancer: 100, 565, 2002). The peptide dimer was dissolved in dimethyl sulfoxide (DMSO) to obtain a 40 mg/ml peptide solution. The peptide solution (35 μl) was then added to 10 mM phosphate buffer (pH 7.5) (581 μl) to obtain a peptide suspension. The resultant peptide suspension (550 μl) and Montanide ISA51 (Seppic) (700 μl) were mixed using a connected glass syringe to prepare an emulsion as an administration solution.
The administration solution (200 μl) was injected into an HLA-A24 transgenic mouse subcutaneously in the base of the tail. Three mice were used. Seven days after the injection, the spleen was removed and splenocytes were prepared. A portion of the splenocytes was pulsed with the peptide dimer (100 μg/ml) for 1 hour. Splenocytes not pulsed with the peptide were seeded into a 24-well plate at 7×10^6 cells/well and thereto were added the above-mentioned splenocytes pulsed with the peptide (1×10^6 cells/well), and the plate was incubated. The incubation was conducted in RPMI1640 medium supplemented with 10% FCS, 10 mM HEPES, 20 mM L-glutamine, 1 mM sodium pyruvate, 1 mM MEM nonessential amino acids, 1% MEM vitamin and 55 μM 2-mercaptoethanol for 5 days.
The cultured splenocytes were examined for the cytotoxic activity specific for the peptide used in the administration by ^51Cr release assay (J. Immunol.: 159, 4753, 1997). EL4-A2402/K^b cells obtained by transforming EL-4 cells (ATCC No. TIB-39) in such a manner that a chimera MHC class I molecule of HLA-A24 and H2K^b (Int. J. Cancer: 100, 565, […]) are expressed stably were used as the target cells. The target cells were labeled with ^51Cr (3.7 MBq/10^6 cells) and pulsed with the peptide at 100 μg/ml for an hour. For control, target cells not pulsed with the peptide were labeled with ^51Cr for 2 hours. Those labeled target cells and the previously prepared splenocytes were mixed at a ratio of 1:120, cultured for 4 hours and the CTL activity was evaluated on the basis of the percent of damaged target cells.

Bridge positions count the residues as written; N and C are the ends. I, II: the chains in the order shown.

For “Example 1: Dimer of two H-Cys-Tyr-Thr-Trp-Asn-Gln-Met-Asn-Leu-OH (SEQ ID NO:44) monomers, made by air oxidation, bound through a disulfide bond (chain 1 H-CYTWNQMNL-OH; chain 2 H-CYTWNQMNL-OH; disulfide I:1-II:1; SMILES CSCC[C@H](NC(=O)[C@H](CCC(N)=O)NC(=O)[C@H](CC(N)=O)NC(=O)[C@H](Cc1c[nH]c2ccccc12)NC(=O)[C@@H](NC(=O)[C@H](Cc1ccc(O)cc1)NC(=O)[C@@H](N)CSSC[C@H](N)C(=O)N[C@@H](Cc1ccc(O)cc1)C(=O)N[C@H](C(=O)N[C@@H](Cc1c[nH]c2ccccc12)C(=O)N[C@@H](CC(N)=O)C(=O)N[C@@H](CCC(N)=O)C(=O)N[C@@H](CCSC)C(=O)N[C@@H](CC(N)=O)C(=O)N[C@@H](CC(C)C)C(=O)O)[C@@H](C)O)[C@@H](C)O)C(=O)N[C@@H](CC(N)=O)C(=O)N[C@@H](CC(C)C)C(=O)O)”, the “CTL-inducing activity (induction of peptide-specific CTLs)” value is “CTLs specific for the peptide were induced”. Further, the “CTL-inducing activity (induction of peptide-specific CTLs)” value (listed as peptide dimer (SEQ ID NO: 44)) is “induces CTLs”. Under “same splenocytes, target cells not pulsed with the peptide, ratio 1:120, 4 hours”, the “cytotoxic activity of splenocytes on target cells not pulsed with the peptide (control)” value is “only weak cytotoxicity”. The “cytotoxic activity of splenocytes on target cells pulsed with the peptide (percent of damaged target cells)” value (splenocytes from mice injected s.c. with emulsion (Montanide ISA51), 7 days, target cells pulsed with peptide 100 μg/ml, target:splenocyte ratio 1:120, 4 hours) was “injured strongly”.
